For experiment [1], the target named is T1, wildtype AR (Homo sapiens, UniProt P10275).
T1 construct: The AR WT construct expresses full-length human AR under cmv promoter control; expressed in transfected cells; host or cells: COS7
T1 sequence (P10275 1-920): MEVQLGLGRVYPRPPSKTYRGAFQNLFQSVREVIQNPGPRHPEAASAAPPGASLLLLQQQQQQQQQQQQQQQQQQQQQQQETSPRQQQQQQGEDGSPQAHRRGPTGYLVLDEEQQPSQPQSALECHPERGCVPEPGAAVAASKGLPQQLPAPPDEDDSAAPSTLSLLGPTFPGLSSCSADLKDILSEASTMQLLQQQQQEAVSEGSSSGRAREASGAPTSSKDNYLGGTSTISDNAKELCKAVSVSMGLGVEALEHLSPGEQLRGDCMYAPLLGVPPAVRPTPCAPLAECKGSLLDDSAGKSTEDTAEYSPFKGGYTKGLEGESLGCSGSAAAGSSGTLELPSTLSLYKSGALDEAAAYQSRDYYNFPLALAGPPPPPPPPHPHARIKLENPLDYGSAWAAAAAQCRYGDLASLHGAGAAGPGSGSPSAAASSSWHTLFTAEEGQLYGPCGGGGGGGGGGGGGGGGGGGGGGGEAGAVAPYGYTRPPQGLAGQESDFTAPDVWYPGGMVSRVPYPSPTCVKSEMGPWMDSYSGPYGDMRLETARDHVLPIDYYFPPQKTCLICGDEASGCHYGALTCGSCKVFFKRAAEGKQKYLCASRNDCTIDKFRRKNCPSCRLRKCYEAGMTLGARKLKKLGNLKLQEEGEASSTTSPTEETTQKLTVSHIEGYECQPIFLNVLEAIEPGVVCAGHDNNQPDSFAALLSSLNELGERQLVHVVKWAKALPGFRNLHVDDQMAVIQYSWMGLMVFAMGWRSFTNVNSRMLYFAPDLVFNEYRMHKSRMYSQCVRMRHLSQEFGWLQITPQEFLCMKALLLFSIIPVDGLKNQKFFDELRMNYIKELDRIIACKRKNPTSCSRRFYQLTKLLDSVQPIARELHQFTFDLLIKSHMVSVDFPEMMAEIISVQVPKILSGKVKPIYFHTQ
The experiment in a line: AR-responsive firefly luciferase reporter assay in COS7 cells transfected with AR (DHT-stimulated AR activity). Format: cell-based. The conditions noted are these: for inhibition at 12.5 µM: COS-7, 24 h, read-out: % Angtag (12.5 μM vs. 1 nM DHT). An excerpt: FIG. 13. Antagonist activity of generation 4 compounds at 25 micromolar. […] Reporter firefly luciferase is corrected for control Renilla activity.
FIG. 14. Antagonist activity of generation 4 compounds at 1-10 micromolar. […] Reporter firefly luciferase is corrected for control Renilla activity. […]
(§1) The AR-responsive firefly luciferase reporter consists of 4 tandem repeats of the consensus steroid response element cloned upstream of the pGL3-Basic Luciferase vector (Promega). The AR WT construct expresses full-length human AR under cmv promoter control.
(§2) Luciferase activity was determined using the Dual-Luciferase Reporter Assay System (Promega E1910).
In general terms: Reporter assays use an easily measured gene product as a stand-in for the process of interest.

Experiment [2] deals with T2, AR in VCaP cells (Homo sapiens, UniProt P10275).
T2 construct: endogenous in cells; host or cells: VCaP
T2 sequence (P10275 1-920): T1 sequence (P10275 1-920)
Description: Nuclear AR, total AR protein and PSA expression in VCaP cells in steroid depleted medium. In kind it is cell-based. An excerpt: VCaP cells, derived from a CRPC vertebral metastasis, express substantial levels of AR and AR regulated genes such as PSA even when cultured in steroid depleted medium. […] In additional studies focused on chemotype A compounds, we used immunofluorescence to assess AR nuclear localization. […] In contrast, and consistent with the biochemical fractionation studies noted above, basal nuclear AR was decreased by A61.
We used the NE-PER Nuclear and Cytoplasmic Extraction Reagents (Pierce 78833).

Experiment [3] addresses T3, AR in C4-2 cells (Homo sapiens, UniProt P10275, T878A).
T3 sequence (P10275 1-920 T878A): T1 sequence (P10275 1-920) with T878A

The target in experiment [4] is T2, AR in VCaP cells. Description: Immunofluorescence of AR nuclear localization in VCaP cells (CSS medium). Format: cell-based. An excerpt:
VCaP cells, derived from a CRPC vertebral metastasis, express substantial levels of AR and AR regulated genes such as PSA even when cultured in steroid depleted medium. […] In additional studies focused on chemotype A compounds, we used immunofluorescence to assess AR nuclear localization.

The target of experiment [5] is T4, T877A mutant AR (Homo sapiens, UniProt P10275, T878A).
T4 sequence (P10275 1-920 T878A): T1 sequence (P10275 1-920) with T878A
The experiment in a line: T877A mutant AR luciferase reporter assay. Format: cell-based. The conditions noted are these: HF 100 nM; chemotype A compounds 10 μM. As for the experimental part:
FIG. 6. […] (f) W741C mutant AR response to Bic (10 μM), HF (100 nM), and chemotype A compounds (10 μM). Error bars represent S.E.M.
To further validate the predicted positioning of the compounds in the steroid binding pocket, we also examined the effects of established mutations within the LBD.
as §1, §2

Experiment [6] concerns the target VP16-AR (Homo sapiens, UniProt P10275).
[7] abbreviates: steroid depleted medium, data not shown.

Substitutions are numbered along the chain they refer to. Entries after “also recorded” stand apart in the source; their conditions may differ.

As for `O=C(CBr)Nc1ccc(S(=O)(=O)NCc2ccc3c(c2)OCO3)cc1` [Compound 13, N-(4-(N-(Benzo[d][1,3]dioxol-5-ylmethyl)sulfamoyl)phenyl) bromoacetamide], the inhibition at 12.5 µM in experiment [1] was 70%.

In the case of `O=C(CCl)Nc1ccc(S(=O)(=O)NCc2ccc3c(c2)OCO3)cc1` [Compound 14, N-(4-(N-(Benzo[d][1,3]dioxol-5-ylmethyl)sulfamoyl)phenyl)chloroacetamide], the inhibition at 12.5 µM in experiment [1] turned out to be 90%.

On to `CC(=O)N(C(C)=O)c1ccc(S(=O)(=O)NCc2ccc3c(c2)OCO3)cc1` [Compound 15, N-acetyl-N-(4-(N-(Benzo[d][1,3]dioxol-5-ylmethyl)sulfamoyl)phenyl) acetamide], for which the “% Angtag (12.5 μM vs. 1 nM DHT)” value in experiment [1] (12.5 μM compound vs. 1 nM DHT) is 85%. On to `O=C(CBr)Nc1cccc(S(=O)(=O)NCc2ccc3c(c2)OCO3)c1` [Compound 17, N-(3-(N-(Benzo[d][1,3]dioxol-5-ylmethyl)sulfamoyl)phenyl)-2-bromoacetamide], for which the inhibition at 12.5 µM in experiment [1] was found to be 20%. Consider `O=C(Nc1ccc(S(=O)(=O)NCc2ccc3c(c2)OCO3)cc1)C(F)(F)F` [Compound 20, N-(4-(N-(Benzo[d][1,3]-dioxol-5-ylmethyl)sulfamoyl)phenyl)-2,2,2-trifluoroacetamide], for which the inhibition at 12.5 µM in experiment [1] turned out to be 0%. The same measure, in the same setting: then `CS(=O)(=O)Nc1ccc(S(=O)(=O)NCc2ccc3c(c2)OCO3)cc1` [Compound 21, N-(benzo[d][1,3]dioxol-5-ylmethyl)-4-(methylsulfonamido)benzenesulfonamide], with 70%; and `CC(C)(C)CC(=O)Nc1ccc(S(=O)(=O)NCc2ccc3c(c2)OCO3)cc1` [Compound 22, N-(4-(N-(Benzo[d][1,3]dioxol-5-ylmethyl)sulfamoyl)phenyl)-3,3-dimethylbutanamide], with 70%. Regarding `O=S(=O)(NCc1ccc2c(c1)OCO2)c1ccc(C(F)(F)F)c(N=C=S)c1` [Compound 23, N-(benzo[d][1,3]dioxol-5-ylmethyl)-3-isothiocyanato-4-(trifluoromethyl)benzenesulfonamide], the inhibition at 12.5 µM in experiment [1] worked out at 75%. Consider `CC(=O)c1ccc(S(=O)(=O)NCc2ccc3c(c2)OCO3)cc1OC(F)(F)F` [Compound 25, 4-acetyl-N-(benzo[d][1,3]dioxol-5-ylmethyl)-3-(trifluoromethoxy)benzenesulfonamide], for which the inhibition at 12.5 µM in experiment [1] came to 50%. With `CCC(=O)c1cc(S(=O)(=O)NCc2ccc3c(c2)OCO3)ccc1OC(F)(F)F` [Compound 29, N-(benzo[d][1,3]dioxol-5-ylmethyl)-3-propionyl-4-(trifluoromethoxy)benzenesulfonamide], the inhibition at 12.5 µM in experiment [1] was 60%.

Take `NC(=O)c1cc(S(=O)(=O)NCc2ccc3c(c2)OCO3)ccc1OC(F)(F)F` [Compound 30, 5-(N-(benzo[d][1,3]dioxol-5-ylmethyl)sulfamoyl)-2-(trifluoromethoxy)benzamide]: the inhibition at 12.5 µM in experiment [1] came out at 20%.

As to `CS(=O)(=O)c1cc(S(=O)(=O)NCc2ccc3c(c2)OCO3)ccc1OC(F)(F)F` [Compound 31, N-(benzo[d][1,3]dioxol-5-ylmethyl)-3-(methylsulfonyl)-4-(trifluoromethoxy)benzenesulfonamide], the inhibition at 12.5 µM in experiment [1] came to 85%. `CC(=O)c1ccc(S(=O)(=O)NCc2ccc3c(c2)OCO3)cc1C(F)(F)F` [Compound 32, 4-acetyl-N-(benzo[d][1,3]dioxol-5-ylmethyl)-3-(trifluoromethyl)benzenesulfonamide]: the inhibition at 12.5 µM in experiment [1] was 50%. For `CCC(=O)c1ccc(S(=O)(=O)NCc2ccc3c(c2)OCO3)cc1C(F)(F)F` [Compound 33, N-(benzo[d][1,3]dioxol-5-ylmethyl)-4-propionyl-3-(trifluoromethyl)benzenesulfonamide], the inhibition at 12.5 µM in experiment [1] stood at 20%. On to `O=S(=O)(NCc1ccc2c(c1)OCO2)c1ccc(F)cc1F` [Compound A61, N-(1,3-benzodioxol-5-ylmethyl)-2,4-difluorobenzenesulfonamide], for which, in experiment [2] (10 μM, steroid depleted medium), the “basal level PSA expression” value is “further decreasing basal level PSA expression” and the “nuclear AR” value was “significantly decreased nuclear AR”. Besides, the “DHT stimulated PSA expression” value in experiment [2] (not shown) is reported as “blocking DHT stimulated PSA expression”. Also, in experiment [3] (24 hours (FIG. 10a)), the “basal PSA” value was “decrease in basal PSA” and the “total AR protein levels” value is recorded as “noteworthy decrease”. Also, in experiment [3] (setting [7]), the PSA expression result is on record as “reduced” and the “nuclear AR levels” value is recorded as “reduced nuclear AR levels”. For the same compound, in experiment [1] (relative to initial chemotype A compounds, data not shown), the “potency in antagonizing AR activity in luciferase reporter assays” value was “increased potency; also recorded: relatively higher potency”. Further, in experiment [4], the “nuclear AR levels by immunofluorescence” value is “decreased”. Consider `CC(C)(O)C(=O)Nc1ccc([N+](=O)[O-])c(C(F)(F)F)c1` [hydroxyflutamide], for which, in experiment [5], the “agonist activity on T877A mutant AR” value is on record as “strong agonist”. Besides, in experiment [6], the “VP16-AR reporter (transcriptional) activity” value is recorded as “strong reporter activity”.

The values are drawn from patent US20140088187A1, “ANDROGEN RECEPTOR INHIBITORS AND METHODS OF USE THEREOF” (BETH ISRAEL DEACONESS MEDICAL CENTER, priority 2010, published 2014).
